We go through one compound from patent US20240293430A1, “WITHAFERIN A AND IMMUNE CHECKPOINT BLOCKER COMBINATION THERAPIES” (University of South Florida, priority 2023, published 2024).

The subject of data set [1] is secreted HMGB-1 from LLC cells. Put plainly: HMGB-1 ELISA of supernatants. It is filed as cell-based, mouse. The conditions noted are these: 0.6 μM WFA, 48 h. The protocol:
Cells were treated with WFA for 48 h then collected using Accutase cell detachment solution. […] (FIG. 2E) Bone marrow-derived DC were co-cultured with WFA-pretreated LLC cells (24 h) in a ratio 5:1 of DC:LLC cells for 24 h.
LLC cells were plated and treated with WFA or doxorubicin (ICD inducer) for 48 h. Supernatants were collected and centrifuged at 1000 RPM for 10 min. The levels of secreted HMGB-1 were measured using the HMGB-1 detection ELISA kit (Chondrex, 6010, Woodinville, WA, USA) according to the manufacturer's protocol.
Background: In an ELISA, binding on a coated surface is turned into a signal by an enzyme label.

The test system of data set [2] is PD-L1 upregulation in MC-38, HCT-116, 4T-1, and MDA-MB-231 cell lines. Put plainly: PD-L1 with WFA and NAC in colorectal and breast cancer cell lines. It counts as cell-based, mouse (MC-38, 4T1), human (HCT-116. The conditions noted are these: breast cancer cell lines (4T1 1 μM, MDA-MB-231 2 μM WFA).
The test system of data set [3] is PD-L1 in NRF-2 knockdown LLC or H1650 cells. The data set is described as follows: NRF-2 siRNA knockdown then WFA, PD-L1 by flow cytometry. It counts as cell-based, mouse (LLC), human (H1650). To be noted: WFA 24 h after siRNA, similar to scramble controls. For orientation: Flow cytometry measures light scatter and fluorescence of single cells or particles in a stream.

The test system of data set [4] is tumor-immune infiltration and ecto-CRT in LLC tumors. Put plainly: LLC syngeneic mouse model, flow cytometry of collected tumors. It is filed as in vivo, C57BL/6 mice. The protocol: FIGS. 5A-5G depict that WFA sensitizes flank tumors to α-PD-L1 therapy and targets immunosuppressive MDSCs and T-regs. (FIG. 5A) Establishment of LLC flank tumors and treatment schedule. (FIG. 5B) Tumor volume measurement in mm^3 and tumor weight at the endpoint of the experiment. (FIG. 5C) Change in the levels of ecto-CRT in tumors was measured using flow cytometry. (FIGS. 5D-5G) Flow cytometry was used to determine the change in immune cell infiltration in collected tumors. […] Moreover, WFA reduced the immunosuppressive T regs (FIG. 5F) and CD11b+Gr1+MDSC (FIG. 5G) populations. The means of two independent experiments ±SEM are shown, and the statistical significance was calculated using one-way ANOVA and a Fisher LSD post hoc test where * and #represent p<0.05 and ** and ##represent p<0.01. * Symbols refer to the difference between the vehicle control and WFA, while #refers to comparisons between the vehicle control and WFA+α-PD-L1 combination.
FIGS. 12A-12D depicts the gating strategy used to determine tumor immune infiltration in LLC tumors and spleens. […] Out of the CD11b population, we gated the monocytic CD11b+Ly6C+ and CD11b+Ly6G+granulocytic MDSCs. (FIG. 12B) For the T-cell panel, the total CD-3 population was gated out of the live single cells. Consequently, CD4, CD25+CD4+Tregs and CD8 population were gated out of CD-3 cells based on the FMO controls. (FIGS. 12C-12D) Mice body weights were measured at the endpoint of the experiment and represented as mean±SEM. The means were compared to the vehicle control using Fisher LSD post-hoc test. * p<0.05.
In vitro WFA-treated or control cells were collected using Accutase cell detachment solution and stained with FACS-diluted (PBS, 10% FBS, 2 mMEDTA) pre-titrated fluorophore conjugated or primary unconjugated antibody solutions (Table 1) for 30 min on ice in the dark. In case of fluorophore-conjugated antibodies, samples are washed and immediately acquired after adding DAPI viability dye, while samples stained with unconjugated antibodies are incubated with the proper secondary fluorophore-conjugated antibody for 30 min before washing and acquisition. For in vivo experiments, the processed tumor or spleen single cell suspensions were used for surface staining with the pre-titrated antibodies (Table 1) for 30 min on ice in the dark. To exclude the dead cells from the analysis, a fixable live/dead Zombie Aqua viability kit (Biolegend, San Diego, CA, USA) was used according to the manufacturer's protocol. Samples were then fixed using 2% PFA for 15 min then washed and stored at 4° C. before acquisition. Samples were acquired using a Becton Dickenson Biosciences (BD, Franklin Lakes, NJ, USA) FACS Canto II or LSR II system at the University of South Florida COM Fred Wright Jr Flow Cytometry Core.
C57BL/6 mice were purchased from the Jackson Laboratory (Bar Harbor, ME, USA) and acclimated for a week. To establish the LLC syngeneic tumors, C57BL/6 mice were injected with a half million cells on the right flank and monitored until tumors were first palpable (2-3 mm diameter). […] Treatments were administered every other day with a total of five treatments and mice body weights and tumor volumes were monitored using a caliper (Fisher Scientific, Waltham, MA, USA, 15-077-957). Tumor volumes (mm^3) were calculated using the equation ([…]), where the length is defined as the bigger tumor dimension. […]

Data set [5] has as its system bone marrow-derived DCs co-cultured with WFA-pretreated LLC. To be noted: DC:LLC 5:1, 24 h co-culture, vs untreated LLC.
Experimental: Cells were treated with WFA for 48 h then collected using Accutase cell detachment solution. […] (FIG. 2E) Bone marrow-derived DC were co-cultured with WFA-pretreated LLC cells (24 h) in a ratio 5:1 of DC:LLC cells for 24 h. DC activation markers (CD80, CD86, and MHC-II) were examined by flow cytometry. The means of at least 2 independent experiments ±SEM is represented, and one-way ANOVA was used to calculate statistical significance where * denotes p<0.05, ** denote p<0.01, *** denote p<0.001, and **** denote p<0.0001.
Hierarchical gating was used to identify the total cell population followed by single live cells the CD11C+DC. Out of the CD11C population, the expression of DC cell activation markers was determined based on the fluorescence minus one (FMO) controls.
Myeloid progenitor cells were isolated from the femurs of C57BL/6 mice as described previously [37]. The isolated cells were cultured in RMPI media supplemented with GMCSF and refed as necessary. On day 8, the differentiated DCs (loosely attached) were collected, counted, and added to WFA-pretreated LLCs or untreated control LLCs at a ratio of 5:1 of DC: LLC cells. […] Then the samples were acquired using a BD LSR II flow cytometer and the data were analyzed using FlowJo 8.7 software (BD, Franklin Lakes, NJ, USA).
Data set [6] deals with WI-38 lung fibroblasts and PBMCs. To be noted: at WFA concentrations toxic to A549 NSCLC cells; cited from earlier work.

`CC1=C(CO)C(=O)O[C@@H]([C@@H](C)[C@H]2CC[C@H]3[C@@H]4C[C@H]5O[C@]56[C@@H](O)C=CC(=O)[C@]6(C)[C@H]4CC[C@]23C)C1` [WFA, Withaferin A]: in data set [1], the “HMGB-1 levels secreted in the supernatants” value is recorded as “increased”. The PD-L1 expression result in data set [2] is “increases”. The “PD-L1 in NRF-2 knockdown cells” value in data set [3] was “still upregulated”. Also, in data set [4], the “CD11b+Gr1+ MDSCs in the tumor” value is “reducing” and the “CD25+CD4+ T-regs in the tumor” value is reported as “reducing”. In addition, the “levels of ecto-CRT in vivo” value in data set [4] (vs control mice) is recorded as “increased”. Besides, in data set [4] (vs vehicle control), the “CD8 T-cell infiltration” value is on record as “increasing”; the “T-cell activation markers CD69 and 41BB” value is listed as “not significant”. Besides, the “DC activation markers CD80, CD86, MHC-II” value in data set [5] is “higher levels”. In addition, the “viability of normal cells” value in data set [6] is on record as “remain viable”.
